Test results published in ChEMBL document CHEMBL1148597, “New tyrosinase inhibitors selected by atomic linear indices-based classification models” (Bioorg Med Chem Lett, 2006).

Each compound was assayed against T1, Tyrosinase (Homo sapiens, UniProt P14679) (assay: Inhibitory activity against tyrosinase).
T1 sequence (P14679 whole entry): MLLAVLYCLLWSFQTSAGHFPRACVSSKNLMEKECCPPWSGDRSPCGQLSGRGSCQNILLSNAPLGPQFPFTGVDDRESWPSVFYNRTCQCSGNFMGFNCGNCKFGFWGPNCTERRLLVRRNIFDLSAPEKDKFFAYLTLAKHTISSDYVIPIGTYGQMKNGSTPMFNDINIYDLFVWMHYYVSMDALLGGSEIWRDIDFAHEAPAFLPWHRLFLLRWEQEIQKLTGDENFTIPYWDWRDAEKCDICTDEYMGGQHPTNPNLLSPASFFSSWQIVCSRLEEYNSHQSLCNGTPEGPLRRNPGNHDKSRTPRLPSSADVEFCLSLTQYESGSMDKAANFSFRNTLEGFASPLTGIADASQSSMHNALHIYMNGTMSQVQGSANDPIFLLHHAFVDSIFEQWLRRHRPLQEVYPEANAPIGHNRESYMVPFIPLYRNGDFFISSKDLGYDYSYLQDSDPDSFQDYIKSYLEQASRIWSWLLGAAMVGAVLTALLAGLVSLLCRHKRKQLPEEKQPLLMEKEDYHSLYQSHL
CC(C)(O)[C@@H]1CC[C@](C)([C@H]2[C@@H](O)C[C@@]3(C)[C@@H]4C[C@H](O[C@@H]5OC[C@@H](O)[C@H](O)[C@H]5O)[C@H]5C(C)(C)[C@@H](O[C@@H]6OC[C@@H](O)[C@H](O)[C@H]6O[C@@H]6OC[C@H](O)[C@H](O)[C@H]6O)CC[C@@]56C[C@@]46CC[C@]23C)O1 [ASKENDOSIDE D] gave an IC50 of 48.9 µM.
Work on C[C@@H]1C[C@H]2O[C@]3(C[C@@]4(C)[C@@H]5[C@@H](O)C[C@H]6C(C)(C)[C@@H](O[C@@H]7OC[C@@H](O)[C@H](O)[C@H]7O)CC[C@@]67C[C@@]57CC[C@]4(C)[C@@H]13)O[C@@H]2C(C)(C)O[C@@H]1O[C@H](CO)[C@@H](O)[C@H](O)[C@H]1O [CYCLOORBICOSIDE G] yielded an IC50 of 54.6 µM.
CC(=O)O[C@@H]1[C@@H](O[C@@H]2OC[C@H](O)[C@H](O)[C@H]2O)[C@H](O[C@H]2CC[C@]34C[C@]35CC[C@]3(C)[C@@H]([C@@]6(C)CC[C@H](C(C)(C)O)O6)[C@@H](O)C[C@@]3(C)[C@@H]5C[C@H](O[C@@H]3OC[C@@H](O)[C@H](O)[C@H]3O)[C@H]4C2(C)C)OC[C@H]1O [ASKENDOSIDE B] gave an IC50 of 13.9 µM.
Compound CC(C)(O)CCC(=O)[C@@](C)(O)[C@H]1[C@H](O)C[C@@]2(C)[C@@H]3CC=C4[C@@H](C=C(O[C@@H]5O[C@H](CO)[C@@H](O)[C@H](O)[C@H]5O)C(=O)C4(C)C)[C@]3(C)C(=O)C[C@]12C [BRYOAMARIDE] has an IC50 of 85 µM.
Work on CC(C)(O)[C@@H]1CC[C@](C)([C@H]2[C@@H](O)C[C@@]3(C)[C@@H]4C[C@H](O[C@H]5O[C@@H](CO)[C@H](O)[C@H](O)[C@@H]5O)[C@H]5C(C)(C)[C@@H](O[C@@H]6OC[C@@H](O)[C@H](O)[C@H]6O)CC[C@@]56C[C@@]46CC[C@]23C)O1 [CYCLOSIEVERSIOSIDE] yielded an IC50 of 92.3 µM.
For C[C@@H]1O[C@@H](O[C@H]2C[C@@H]3[C@]4(CC[C@]5(C)[C@@H]([C@@]6(C)CC[C@@H](C(C)(C)O)O6)[C@@H](O)C[C@@]35C)C[C@@]43CC[C@H](O[C@@H]4OC[C@@H](O)[C@H](O)[C@H]4O)C(C)(C)[C@H]23)[C@H](O)[C@H](O)[C@H]1O [CYCLOCARPOSIDE], the IC50 was 102 µM.
